Assay results from patent US11390868B2, “Treatment of filaggrin (FLG) related diseases by modulation of FLG expression and activity” (CuRNA, Inc., priority 2009, dated 2022).
Structures can show the parent of a compound that is named as a salt. Where two headings read alike, the source gives them in different places.

What was measured:
[1] = cited from earlier work
[2] = cited from earlier work; for solubility in ethanol / alcohol: anhydrous ethanol or alcohol
TNF-alpha = conditions: several case studies and a pilot study; cited from earlier work
[3] = system: FLG Natural Antisense Transcripts in primary keratinocytes; assay: Real time PCR of FLG Natural Antisense Transcripts after treatment of primary keratinocytes with small compounds; assay type: cell-based; conditions: small compounds 1 uM, dosed twice, 24 h after second dosing, vs vehicle control (FIG. 5)
Method: Primary keratinocytes (from Promocell) were grown in a growth media (Keratinocyte Growth Media, Promocell cat #C-2011) at 37° C. with 5% CO2. One day before the experiment the cells were replated at approximately 5×10^4/ml (or about ⅓ dilution from 90% confluency) into 24-well collagen-coated plates (Beckton Dickinson BioCoat plates cat #35 6408) and incubated at 37° C. and 5% CO2 overnight. On the day of the experiment the media in the 24-well plates was changed to 1 ml fresh growth media. Small compounds were diluted in DMSO to the concentration of 1000 uM. On the day of the experiment this solution was diluted 1:100 in fresh growth media. Pure DMSO was diluted in media at the same ratio […] to treat vehicle control samples. To dose one well, […] of the compound or pure DMSO solution was added directly to well of a 24-well plate. The final concentration of compounds was 1 uM. Dosing volume was adjusted if a different concentration of compound was desired. After dosing the plates were incubated overnight at 37° C., 5% CO2. 24 h after addition of small compounds the media was replaced with fresh growth media and the dosing was repeated as described above. 24 h after second dosing RNA was extracted from the cells using SV Total RNA Isolation System from Promega (cat #Z3105) following the manufacturers' instructions. 600 ng of total RNA was added to the reverse transcription reaction performed using High Capacity cDNA kit from Applied Biosystems (cat #4368813) as described in the manufacturer's protocol. The cDNA from this reverse transcription reaction was used to monitor gene expression by real time PCR using BI Taqman Gene Expression Mix (cat #4369510) and primers/probes designed by AB (for example, assay ID #Hs00856927_gl for FLG). The following PCR cycle was used: 50° C. for 2 min, 95° C. for 10 min, 40 cycles of (95° C. for 15 seconds, 60° C. for […]) using StepOne thermal cycler (ABI). […] Fold change in gene expression after treatment with small compounds was calculated based on the difference in 18S-normalized dCt values between treated and mock-transfected samples.

[4] = cited from earlier work; remark: listed apart in the source
[5] = system: patients with severe head trauma; conditions: peripheral vein injection plus standard procedures; cited from earlier work

## O=C([O-])CCc1nc(-c2ccccc2)c(-c2ccccc2)o1.[K+] [Oxaprozin potassium, 4,5-diphenyl-2-oxazolepropionic acid, potassium salt]
[1]; in water
  PK in water: 9.7
[2]
  solubility in ethanol / alcohol: slightly soluble
  solubility in water: very soluble

## CC(NC(C)(C)C)C(=O)c1cccc(Cl)c1.Cl (racemic) [Bupropion, (±)-1-(3-chlorophenyl)-2-[(1,1-dimethylethyl)amino]-1-propanone hydrochloride]
TNF-alpha
  level of inflammatory mediator TNF-alpha: lowers
[3]
  levels of FLG Natural Antisense Transcripts: significantly decreased
[2]
  solubility in water: highly soluble

## COC(=O)C1=C(C)NC(C)=C(C(=O)O[C@@H]2CCCN(Cc3ccccc3)C2)[C@@H]1c1cccc([N+](=O)[O-])c1.Cl (relative stereo) [Bendipine, (4R)-rel-1,4-Dihydro-2,6-dimethyl-4-(3-nitrophenyl)-3,5-pyridinedicarboxylic acid 3-methyl 5-[(3R)-1-(phenylmethyl)-3-piperidinyl]ester hydrochloride]
[3]
  levels of FLG Natural Antisense Transcripts: significantly decreased

## CN1C(C(=O)Nc2ccccn2)=C(O)c2ccccc2S1(=O)=O [Piroxicam, 4-hydroxyl-2-methyl-N-2-pyridinyl-2H-1,2,-benzothiazine-3-carboxamide 1,1-dioxide]
[1]; pyridyl nitrogen
  pKa of weak basic pyridyl nitrogen: 1.8
[2]; aqueous solutions
  solubility in aqueous solutions: slightly soluble
[2]; dilute acid
  solubility in dilute acid: sparingly soluble
[2]
  solubility in ethanol / alcohol: slightly soluble
  solubility in water: sparingly soluble
[2]; most organic solvents
  solubility in most organic solvents: sparingly soluble

## CC1(C)O[C@@H]2[C@@H](CO[C@@]3(COS(N)(=O)=O)OC(C)(C)O[C@@H]23)O1 [Topiramate, 2,3:4,5-Di-O-isopropylidene-β-D-fructopyranose sulfamate]
[3]
  levels of FLG Natural Antisense Transcripts: significantly decreased
[4]
  pH of saturated solution: 6.3
[2]
  solubility in acetone: freely soluble
  solubility in chloroform: freely soluble
  solubility in ethanol / alcohol: freely soluble
[2]; alkaline solutions containing sodium hydroxide or sodium phosphate, pH of 9 to 10
  solubility in alkaline solutions: most soluble
[2]; dimethyl sulfoxide
  solubility in dimethyl sulfoxide: freely soluble

## CCc1ccc(CCOc2ccc(CC3SC(=O)NC3=O)cc2)nc1 (racemic) [Pioglitazone hydrochloride, [(±)-5-[[4-[2-(5-ethyl-2-pyridinyl)ethoxy]phenyl]methyl]-2,4-]thiazolidinedione monohydrochloride]
[2]; N,N-dimethylformamide
  solubility in N,N-dimethylformamide: soluble
[2]
  solubility in acetone: very slightly soluble
  solubility in ethanol / alcohol: slightly soluble
  solubility in water: practically insoluble
[2]; acetonitrile
  solubility in acetonitrile: very slightly soluble
[2]; ether
  solubility in ether: insoluble

## COCCOC(=O)C1=C(C)NC(C)=C(C(=O)OC(C)C)C1c1cccc([N+](=O)[O-])c1 (stereo not drawn) [nimodipine, isopropyl 2-methoxyethyl 1,4-dihydro-2,6-dimethyl-4-(m-nitrophenyl)-3,5-pyridinedicarboxylate]
[5]
  Glasgow outcome score values: higher
  cerebral metabolism: improved
  cerebral perfusion pressure: significantly higher
  intracranial pressure: lower
  jugular glucose: lower
  jugular lactate: lower
  jugular venous oxygen saturation: significantly higher

## COC(=O)C1=C(C)NC(C)=C(C(=O)OC(C)C)C1c1cccc2nonc12 (stereo not drawn) [Isradipine, 3,5-Pyridinedicarboxylic acid, 4-(4-benzofurazanyl)-1,4-dihydro-2,6-dimethyl-, methyl 1-methylethyl ester]
[2]
  solubility in acetone: freely soluble
  solubility in chloroform: freely soluble
  solubility in ethanol / alcohol: soluble
  solubility in water: practically insoluble
[2]; methylene chloride
  solubility in methylene chloride: freely soluble
[2]; 37° C.
  solubility in water: < 10 µg/mL
